According to patent US20070169671A1, “Mold Inhibiting Admixture for a Cementitious Material” (priority 2006, published 2007):

Tested on: mold
Assay: Mold growth on inoculated cementitious material samples
Assay type: cell-based
Conditions: cementitious materials formed from mixtures including calcium propionate solutions (0.05, 0.1, 0.2% by weight of concrete ingredients); inoculated with a composition of mold; after two weeks in an environment conducive of mold growth
Excerpt: Samples of cementitious materials formed from a cementitious mixture including the calcium propionate solutions were inoculated with a composition of mold and placed in an environment conducive of mold growth.

Compound: CCC(=O)[O-].CCC(=O)[O-].[Ca+2] [calcium propionate]
- mold propagation on the cementitious materials: no mold propagation was observed
